The source made the active and inactive calls.
Legend:
[1] = system: INS1; assay: beta cell apoptosis inhibitors, cytokine rescue, dose response, luminescence, retest (AID 449756); assay type: functional, cell-based; details: Rattus norvegicus;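 note: cell death triggered by IL-1 beta plus TNF-alpha plus IFN-gamma mixture; protective hits raise ATP signal compared with cytokine alone wells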
[2] = system: Streptococcus; assay: Group A Streptococcus viability loss, dose response, counter-screen for streptokinase expression inhibitor project, luminescence, BacTiterGlo (AID 1915); assay type: functional, organism-based;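 note: potency for reduction of bacterial viability or growth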
[3] = target: T1, Sentrin-specific protease 8 (Homo sapiens, UniProt Q96LD8); assay type: functional;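 note: luminescence read-out of SENP8 inhibition, dose-response confirmation following an ultra-high-throughput screen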
T1 sequence (Q96LD8 whole entry): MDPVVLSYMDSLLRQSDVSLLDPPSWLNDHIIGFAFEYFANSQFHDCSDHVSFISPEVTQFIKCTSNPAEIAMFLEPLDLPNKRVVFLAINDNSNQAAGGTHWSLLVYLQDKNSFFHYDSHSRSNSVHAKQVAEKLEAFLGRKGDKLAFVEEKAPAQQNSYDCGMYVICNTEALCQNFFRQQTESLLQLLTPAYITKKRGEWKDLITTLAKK

[4] = target: T2, Histone-lysine N-methyltransferase NSD2 (Homo sapiens, UniProt O96028); assay type: biochemical
T2 sequence (O96028 whole entry): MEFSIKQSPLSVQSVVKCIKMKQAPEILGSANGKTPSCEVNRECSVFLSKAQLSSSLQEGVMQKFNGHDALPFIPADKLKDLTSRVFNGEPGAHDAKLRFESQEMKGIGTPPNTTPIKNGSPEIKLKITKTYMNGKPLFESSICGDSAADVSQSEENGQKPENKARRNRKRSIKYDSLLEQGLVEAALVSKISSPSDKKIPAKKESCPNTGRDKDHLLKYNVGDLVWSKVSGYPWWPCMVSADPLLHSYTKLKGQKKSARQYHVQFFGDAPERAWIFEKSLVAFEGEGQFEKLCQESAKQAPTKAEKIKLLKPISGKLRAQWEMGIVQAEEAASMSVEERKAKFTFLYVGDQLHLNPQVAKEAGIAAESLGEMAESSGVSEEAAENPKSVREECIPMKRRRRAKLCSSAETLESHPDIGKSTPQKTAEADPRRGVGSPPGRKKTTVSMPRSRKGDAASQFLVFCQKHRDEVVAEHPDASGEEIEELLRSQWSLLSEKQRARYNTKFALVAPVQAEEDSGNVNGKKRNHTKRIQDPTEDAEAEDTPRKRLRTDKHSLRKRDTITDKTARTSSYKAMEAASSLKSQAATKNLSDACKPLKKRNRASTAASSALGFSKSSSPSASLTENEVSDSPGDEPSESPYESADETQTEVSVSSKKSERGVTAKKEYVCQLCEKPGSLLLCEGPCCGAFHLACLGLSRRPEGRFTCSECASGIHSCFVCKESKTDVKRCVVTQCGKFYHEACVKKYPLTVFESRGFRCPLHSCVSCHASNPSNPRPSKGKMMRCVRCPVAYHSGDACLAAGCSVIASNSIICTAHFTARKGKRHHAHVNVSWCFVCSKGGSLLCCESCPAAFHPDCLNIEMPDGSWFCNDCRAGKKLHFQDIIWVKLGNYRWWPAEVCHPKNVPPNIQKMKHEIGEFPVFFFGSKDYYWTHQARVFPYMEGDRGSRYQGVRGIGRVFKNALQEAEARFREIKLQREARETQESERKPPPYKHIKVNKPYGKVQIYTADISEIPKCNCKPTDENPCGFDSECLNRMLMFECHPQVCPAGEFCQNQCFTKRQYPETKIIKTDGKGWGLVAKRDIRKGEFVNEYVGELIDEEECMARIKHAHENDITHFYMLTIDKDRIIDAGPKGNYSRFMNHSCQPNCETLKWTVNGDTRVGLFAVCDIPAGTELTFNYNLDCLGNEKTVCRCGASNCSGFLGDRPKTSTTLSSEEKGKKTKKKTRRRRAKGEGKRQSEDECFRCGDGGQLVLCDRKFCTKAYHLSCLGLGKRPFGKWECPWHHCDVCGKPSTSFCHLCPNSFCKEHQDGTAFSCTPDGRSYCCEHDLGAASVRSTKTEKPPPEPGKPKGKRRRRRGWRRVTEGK

[5] = target: Dual specificity tyrosine-phosphorylation-regulated kinase 1A (Homo sapiens, UniProt Q13627); assay type: functional;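 note: measured against DYRK1A as one member of a broad kinome profiling panel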
[6] = target: Tyrosine-protein kinase JAK2 (Homo sapiens, UniProt O60674); assay type: functional;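 note: JAK2 tested as one member of a kinase panel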
Sequence of Tyrosine-protein kinase JAK2 (O60674 whole entry): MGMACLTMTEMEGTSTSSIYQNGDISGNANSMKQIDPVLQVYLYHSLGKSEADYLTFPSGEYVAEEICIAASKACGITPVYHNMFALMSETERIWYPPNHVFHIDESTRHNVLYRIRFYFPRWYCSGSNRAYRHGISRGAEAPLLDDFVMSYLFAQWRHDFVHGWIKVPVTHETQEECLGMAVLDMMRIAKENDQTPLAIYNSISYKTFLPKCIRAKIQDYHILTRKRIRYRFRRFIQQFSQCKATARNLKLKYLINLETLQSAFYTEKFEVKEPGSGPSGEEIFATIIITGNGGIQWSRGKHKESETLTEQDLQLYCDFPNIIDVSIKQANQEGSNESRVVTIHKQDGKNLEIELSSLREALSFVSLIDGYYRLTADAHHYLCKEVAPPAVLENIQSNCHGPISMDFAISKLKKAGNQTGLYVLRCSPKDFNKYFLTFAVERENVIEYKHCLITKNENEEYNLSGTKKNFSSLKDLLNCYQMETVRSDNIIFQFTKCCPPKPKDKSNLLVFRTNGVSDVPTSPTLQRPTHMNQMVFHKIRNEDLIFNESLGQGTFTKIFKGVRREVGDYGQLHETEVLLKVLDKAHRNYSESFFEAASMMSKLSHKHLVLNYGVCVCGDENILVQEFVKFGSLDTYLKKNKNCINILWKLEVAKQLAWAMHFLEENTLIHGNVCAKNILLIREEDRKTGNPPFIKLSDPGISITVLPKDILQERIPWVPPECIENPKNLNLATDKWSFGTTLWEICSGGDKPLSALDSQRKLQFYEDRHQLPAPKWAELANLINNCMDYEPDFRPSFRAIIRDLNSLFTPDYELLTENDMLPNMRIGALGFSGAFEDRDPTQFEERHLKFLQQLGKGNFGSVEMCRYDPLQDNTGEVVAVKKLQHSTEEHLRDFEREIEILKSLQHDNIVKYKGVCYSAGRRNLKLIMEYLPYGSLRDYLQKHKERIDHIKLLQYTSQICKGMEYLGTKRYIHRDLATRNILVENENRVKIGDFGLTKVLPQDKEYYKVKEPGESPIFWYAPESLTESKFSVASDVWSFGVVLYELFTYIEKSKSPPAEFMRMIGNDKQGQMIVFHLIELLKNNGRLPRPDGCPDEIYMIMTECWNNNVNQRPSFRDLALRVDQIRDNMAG

[7] = target: Receptor-type tyrosine-protein kinase FLT3 (Homo sapiens, UniProt P36888); assay type: functional;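 note: FLT3 was tested as one member of a kinome-wide kinase panel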
[8] = target: ALK tyrosine kinase receptor (Homo sapiens, UniProt Q9UM73); assay type: functional;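 note: ALK tested as one member of a kinase panel screen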
[9] = target: BDNF/NT-3 growth factors receptor (Homo sapiens, UniProt Q16620); assay type: functional;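 note: NTRK2 measured as one member of a broad kinome-wide kinase profiling panel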
Sequence of BDNF/NT-3 growth factors receptor (Q16620 whole entry): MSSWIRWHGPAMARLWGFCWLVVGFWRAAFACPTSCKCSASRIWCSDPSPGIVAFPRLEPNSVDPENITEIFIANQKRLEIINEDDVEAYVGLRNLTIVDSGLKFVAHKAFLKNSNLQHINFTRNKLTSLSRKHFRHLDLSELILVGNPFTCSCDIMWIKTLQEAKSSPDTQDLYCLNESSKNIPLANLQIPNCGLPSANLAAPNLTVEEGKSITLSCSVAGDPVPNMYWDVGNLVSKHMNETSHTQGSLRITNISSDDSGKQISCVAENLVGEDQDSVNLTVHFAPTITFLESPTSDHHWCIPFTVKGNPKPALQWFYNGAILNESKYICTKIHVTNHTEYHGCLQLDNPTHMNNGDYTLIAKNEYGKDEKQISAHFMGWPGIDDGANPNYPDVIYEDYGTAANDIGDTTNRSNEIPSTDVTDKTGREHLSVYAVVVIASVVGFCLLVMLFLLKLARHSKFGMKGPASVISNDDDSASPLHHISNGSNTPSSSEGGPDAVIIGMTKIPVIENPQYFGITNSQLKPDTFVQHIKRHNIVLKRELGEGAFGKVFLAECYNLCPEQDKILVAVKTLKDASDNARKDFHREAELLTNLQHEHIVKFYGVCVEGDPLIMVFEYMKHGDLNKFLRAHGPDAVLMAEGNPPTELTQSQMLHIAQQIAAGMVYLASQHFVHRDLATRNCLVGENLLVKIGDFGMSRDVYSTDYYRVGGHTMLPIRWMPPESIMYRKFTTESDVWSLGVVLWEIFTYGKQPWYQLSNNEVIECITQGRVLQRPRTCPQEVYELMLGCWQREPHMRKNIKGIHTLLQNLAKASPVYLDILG

[10] = target: Aurora kinase A (Homo sapiens, UniProt O14965); assay type: functional;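 note: value from the Navigating the Kinome kinase panel profiling, panel entry STK6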
Sequence of Aurora kinase A (O14965 whole entry): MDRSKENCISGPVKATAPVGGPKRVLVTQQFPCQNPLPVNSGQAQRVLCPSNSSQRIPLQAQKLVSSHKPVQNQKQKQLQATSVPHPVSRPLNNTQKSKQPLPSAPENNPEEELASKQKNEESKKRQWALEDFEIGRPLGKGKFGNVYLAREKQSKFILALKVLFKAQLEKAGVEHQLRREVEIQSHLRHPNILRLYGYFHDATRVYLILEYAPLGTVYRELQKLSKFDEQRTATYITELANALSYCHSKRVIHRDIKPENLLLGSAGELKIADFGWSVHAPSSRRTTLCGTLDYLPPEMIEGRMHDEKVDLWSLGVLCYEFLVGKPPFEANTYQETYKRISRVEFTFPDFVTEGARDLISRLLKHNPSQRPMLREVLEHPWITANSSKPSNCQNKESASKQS

[11] = target: Tyrosine-protein kinase BTK (Homo sapiens, UniProt Q06187); assay type: functional
[12] = target: Dual specificity tyrosine-phosphorylation-regulated kinase 1B (Homo sapiens, UniProt Q9Y463); assay: Navigating the Kinome. Panel member name: DYRK1B; assay type: functional
[13] = target: Dual specificity protein kinase CLK2 (Homo sapiens, UniProt P49760); assay type: functional
Sequence of Dual specificity protein kinase CLK2 (P49760 whole entry): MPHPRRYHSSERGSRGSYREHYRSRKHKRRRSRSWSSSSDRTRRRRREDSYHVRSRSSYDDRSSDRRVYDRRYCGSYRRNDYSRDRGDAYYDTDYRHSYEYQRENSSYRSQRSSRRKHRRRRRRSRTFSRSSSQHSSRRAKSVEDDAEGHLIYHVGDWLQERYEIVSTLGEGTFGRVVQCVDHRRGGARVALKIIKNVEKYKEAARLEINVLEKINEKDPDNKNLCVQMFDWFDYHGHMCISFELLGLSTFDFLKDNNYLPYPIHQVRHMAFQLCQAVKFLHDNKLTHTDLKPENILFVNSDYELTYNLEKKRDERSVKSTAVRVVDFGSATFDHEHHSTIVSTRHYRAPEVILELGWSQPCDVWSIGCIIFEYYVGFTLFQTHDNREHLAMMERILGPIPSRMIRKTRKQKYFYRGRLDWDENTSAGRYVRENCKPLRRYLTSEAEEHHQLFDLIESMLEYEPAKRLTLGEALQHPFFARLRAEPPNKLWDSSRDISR

[14] = target: Activated CDC42 kinase 1 (Homo sapiens, UniProt Q07912); assay: Navigating the Kinome. Panel member name: ACK1; assay type: functional
[15] = target: Glycogen synthase kinase-3 beta (Homo sapiens, UniProt P49841); assay type: functional;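 note: value comes from a broad kinome profiling panel, with GSK3B as the panel member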
[16] = target: Death-associated protein kinase 3 (Homo sapiens, UniProt O43293); assay type: functional;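 note: measured as one member of a kinome-wide profiling panel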
[17] = target: Casein kinase I isoform alpha (Homo sapiens, UniProt P48729); assay type: functional
[18] = target: Serine/threonine-protein kinase PAK 4 (Homo sapiens, UniProt O96013); assay type: functional;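 note: value obtained within a kinome profiling panel in which PAK4 was one of the panel members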
[19] = target: Mitogen-activated protein kinase 8 (Homo sapiens, UniProt P45983); assay type: functional;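 note: value comes from one member of a kinome-wide kinase profiling panel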
Sequence of Mitogen-activated protein kinase 8 (P45983 whole entry): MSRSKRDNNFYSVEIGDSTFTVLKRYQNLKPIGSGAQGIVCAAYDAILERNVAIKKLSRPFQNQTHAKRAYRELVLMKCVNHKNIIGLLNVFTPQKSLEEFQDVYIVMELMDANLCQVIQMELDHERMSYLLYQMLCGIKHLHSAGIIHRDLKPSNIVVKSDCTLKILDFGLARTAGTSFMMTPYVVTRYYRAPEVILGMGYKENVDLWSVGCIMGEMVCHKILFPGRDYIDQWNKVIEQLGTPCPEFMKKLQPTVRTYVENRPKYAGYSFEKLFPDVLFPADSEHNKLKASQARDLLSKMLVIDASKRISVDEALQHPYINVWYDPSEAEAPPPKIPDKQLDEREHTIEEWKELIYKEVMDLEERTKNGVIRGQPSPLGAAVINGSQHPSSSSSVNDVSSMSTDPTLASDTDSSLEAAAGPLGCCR

[20] = target: Dual specificity protein kinase CLK4 (Homo sapiens, UniProt Q9HAZ1); assay type: functional
[21] = target: Macrophage colony-stimulating factor 1 receptor (Homo sapiens, UniProt P07333); assay type: functional;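 note: value comes from the Navigating the Kinome screening panel, CSF1R member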
Sequence of Macrophage colony-stimulating factor 1 receptor (P07333 whole entry): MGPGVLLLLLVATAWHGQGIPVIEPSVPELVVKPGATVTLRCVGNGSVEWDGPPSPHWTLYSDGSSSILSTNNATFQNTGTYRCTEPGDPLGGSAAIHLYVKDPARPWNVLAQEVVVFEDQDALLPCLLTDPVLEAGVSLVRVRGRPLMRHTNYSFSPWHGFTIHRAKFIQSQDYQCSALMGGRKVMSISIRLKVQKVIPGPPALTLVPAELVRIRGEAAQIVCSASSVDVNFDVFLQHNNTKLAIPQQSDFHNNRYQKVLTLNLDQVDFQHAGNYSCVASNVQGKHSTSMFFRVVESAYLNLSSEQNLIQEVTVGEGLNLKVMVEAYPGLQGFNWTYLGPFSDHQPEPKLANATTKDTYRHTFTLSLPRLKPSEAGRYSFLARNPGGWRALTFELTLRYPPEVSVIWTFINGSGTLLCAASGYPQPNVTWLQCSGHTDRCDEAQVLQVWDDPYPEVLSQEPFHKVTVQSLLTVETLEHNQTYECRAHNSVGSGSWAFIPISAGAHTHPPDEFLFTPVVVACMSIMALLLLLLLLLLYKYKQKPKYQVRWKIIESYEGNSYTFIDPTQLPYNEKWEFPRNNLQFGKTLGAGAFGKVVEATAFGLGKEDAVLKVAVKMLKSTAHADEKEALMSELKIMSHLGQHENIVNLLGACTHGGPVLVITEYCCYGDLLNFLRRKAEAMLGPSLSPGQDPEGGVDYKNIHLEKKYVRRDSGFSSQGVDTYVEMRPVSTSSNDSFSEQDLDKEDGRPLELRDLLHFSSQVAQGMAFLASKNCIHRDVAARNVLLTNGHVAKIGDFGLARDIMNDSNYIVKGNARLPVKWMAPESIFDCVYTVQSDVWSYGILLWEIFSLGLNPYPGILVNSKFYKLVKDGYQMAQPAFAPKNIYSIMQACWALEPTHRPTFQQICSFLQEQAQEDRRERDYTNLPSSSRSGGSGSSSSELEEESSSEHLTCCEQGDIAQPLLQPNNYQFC

[22] = target: Protein kinase C theta type (Homo sapiens, UniProt Q04759); assay: Navigating the Kinome. Panel member name: PRKCQ; assay type: functional
Sequence of Protein kinase C theta type (Q04759 whole entry): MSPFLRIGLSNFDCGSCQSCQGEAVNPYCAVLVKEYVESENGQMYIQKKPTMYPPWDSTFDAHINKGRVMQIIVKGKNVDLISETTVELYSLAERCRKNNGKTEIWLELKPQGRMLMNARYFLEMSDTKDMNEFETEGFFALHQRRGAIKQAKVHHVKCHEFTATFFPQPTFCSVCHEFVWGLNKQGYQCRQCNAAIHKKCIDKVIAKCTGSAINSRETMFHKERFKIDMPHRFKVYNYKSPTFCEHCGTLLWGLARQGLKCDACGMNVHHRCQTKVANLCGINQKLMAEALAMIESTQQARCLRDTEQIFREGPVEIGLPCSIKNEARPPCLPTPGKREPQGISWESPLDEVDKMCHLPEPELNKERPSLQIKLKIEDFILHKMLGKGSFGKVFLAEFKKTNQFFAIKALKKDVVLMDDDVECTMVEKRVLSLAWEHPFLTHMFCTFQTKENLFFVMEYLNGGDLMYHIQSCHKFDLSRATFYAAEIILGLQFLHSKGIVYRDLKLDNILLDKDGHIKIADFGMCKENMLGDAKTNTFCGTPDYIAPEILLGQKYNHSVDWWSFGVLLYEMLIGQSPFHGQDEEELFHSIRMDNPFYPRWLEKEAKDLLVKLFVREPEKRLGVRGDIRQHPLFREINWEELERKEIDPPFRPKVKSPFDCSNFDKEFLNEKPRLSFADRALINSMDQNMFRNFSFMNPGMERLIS

[23] = target: cAMP-dependent protein kinase catalytic subunit alpha (Homo sapiens, UniProt P17612); assay type: functional
[24] = target: Tyrosine-protein kinase receptor TYRO3 (Homo sapiens, UniProt Q06418); assay type: functional;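 note: TYRO3 value obtained as one member of a kinome-wide profiling panel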
[25] = target: Ribosomal protein S6 kinase alpha-3 (Homo sapiens, UniProt P51812); assay type: functional;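 note: measured within a kinome-wide profiling panel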

CNC[C@H](Cc1ccccc1)NC[C@@H](Cc1cccc2ccccc12)NCCc1ccc(C)cc1
AC50 [1]: 7.38 µM (active) | EC50 [2]: 7.51 µM (active)

Nc1nnc2c(n1)CCCC2
IC50 [3]: 10.8 µM (active) | AC50 [4]: 16.5 µM (active)

O=C(Cc1ccccc1Cl)NC1(O)C(=O)c2ccccc2C1=O
AC50 [4]: 8.16 µM (active)

O=C(N/N=C/c1c(O)ccc2ccccc12)c1[nH]ncc1Br
IC50 [3]: > 100 µM (inactive) | AC50 [1]: 0.558 µM (active)

Nc1c(-c2ccc(NC(=O)Nc3cccc(C(F)(F)F)c3)cc2)cnc2c(-c3ccc4c(c3)OCO4)cnn12
Ki [5]: > 2 µM (inactive) | Ki [6]: > 2.51 µM (inactive) | Ki [7]: 0.0501 µM (active) | Ki [8]: > 6.31 µM (inactive) | Ki [9]: 0.0126 µM (active) | Ki [10]: > 1.58 µM (inactive) | Ki [11]: 0.316 µM (active) | Ki [12]: > 2.51 µM (inactive) | Ki [13]: > 3.98 µM (inactive) | Ki [14]: 0.2 µM (active) | Ki [15]: > 3.98 µM (inactive) | Ki [16]: > 5.01 µM (inactive) | Ki [17]: > 3.98 µM (inactive) | Ki [18]: > 5.01 µM (inactive) | Ki [19]: > 5.01 µM (inactive) | Ki [20]: > 2.51 µM (inactive) | Ki [21]: 0.0631 µM (active) | Ki [22]: > 2.51 µM (inactive) | Ki [23]: > 1.26 µM (inactive) | Ki [24]: 1.26 µM (active) | Ki [25]: > 3.98 µM (inactive)

O=C(Nc1cc(-c2c[nH]c3ncccc23)cc(Cl)n1)c1ccccc1
Ki [5]: 0.251 µM (active) | Ki [6]: > 2.51 µM (inactive) | Ki [7]: > 2.51 µM (inactive) | Ki [8]: > 6.31 µM (inactive) | Ki [9]: > 3.98 µM (inactive) | Ki [10]: > 1.58 µM (inactive) | Ki [11]: > 6.31 µM (inactive) | Ki [12]: 0.316 µM (active) | Ki [13]: > 3.16 µM (inactive) | Ki [14]: > 3.98 µM (inactive) | Ki [15]: > 3.98 µM (inactive) | Ki [16]: > 3.98 µM (inactive) | Ki [17]: > 2.51 µM (inactive) | Ki [18]: > 5.01 µM (inactive) | Ki [19]: > 5.01 µM (inactive) | Ki [20]: 0.0251 µM (active) | Ki [21]: > 2.51 µM (inactive) | Ki [22]: > 2.51 µM (inactive) | Ki [23]: > 2.51 µM (inactive) | Ki [24]: > 3.16 µM (inactive) | Ki [25]: > 3.98 µM (inactive)

CCN1C(=Cc2sc3ccccc3[n+]2C)C=Cc2cccc(C)c21
EC50 [2]: 8.99 µM (active)

Source: ChEMBL document CHEMBL1201862, “PubChem BioAssay data set” (2004)
